# Tested on: 192522-019-R-J2-PDC complex tumor spheroid viability
# Test: Anticancer human tumor 192522-019-R-J2-PDC patient-derived colon adenocarcinoma cell line growth inhibition [POLQ]
# Conditions: for IC50: curve of first compound; for viability, T/C: stronger effect = lower value
# In short: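 Three-cell-type spheroids modelling solid tumor plus stroma served as the readout system; POL inhibitors were tested individually and in combination, concentration ranges set by clinical Cmax where known.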
# [1] = second compound 0.0316 µM, first compound 0.0316 µM
# [2] = second compound 0.0316 µM, first compound 0.1 µM
# [3] = second compound 0.0316 µM, first compound 0.316 µM
# [4] = second compound 0.0316 µM, first compound 1 µM
# [5] = second compound 0.0316 µM, first compound 3.16 µM
# [6] = second compound 0.0316 µM, first compound 10 µM
# [7] = second compound 0.1 µM, first compound 0.0316 µM
# [8] = second compound 0.1 µM, first compound 0.1 µM
# [9] = second compound 0.1 µM, first compound 0.316 µM
# [10] = second compound 0.1 µM, first compound 1 µM
# [11] = second compound 0.1 µM, first compound 3.16 µM
# [12] = second compound 0.1 µM, first compound 10 µM
# [13] = second compound 0.316 µM, first compound 0.0316 µM
# [14] = second compound 0.316 µM, first compound 0.1 µM
# [15] = second compound 0.316 µM, first compound 0.316 µM
# [16] = second compound 0.316 µM, first compound 1 µM
# [17] = second compound 0.316 µM, first compound 3.16 µM
# [18] = second compound 0.316 µM, first compound 10 µM
# [19] = second compound 1 µM, first compound 0.0316 µM
# [20] = second compound 1 µM, first compound 0.1 µM
# [21] = second compound 1 µM, first compound 0.316 µM
# [22] = second compound 1 µM, first compound 1 µM
# [23] = second compound 1 µM, first compound 3.16 µM
# [24] = second compound 1 µM, first compound 10 µM
# [25] = second compound 3.16 µM, first compound 0.0316 µM
# [26] = second compound 3.16 µM, first compound 0.1 µM
# [27] = second compound 3.16 µM, first compound 0.316 µM
# [28] = second compound 3.16 µM, first compound 1 µM
# [29] = second compound 3.16 µM, first compound 3.16 µM
# [30] = second compound 3.16 µM, first compound 10 µM
# [31] = second compound 10 µM, first compound 0.0316 µM
# [32] = second compound 10 µM, first compound 0.1 µM
# [33] = second compound 10 µM, first compound 0.316 µM
# [34] = second compound 10 µM, first compound 1 µM
# [35] = second compound 10 µM, first compound 3.16 µM
# [36] = second compound 10 µM, first compound 10 µM
# 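Further: spheroids exposed to drugs for seven days before reading.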
# 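Wherever viability, T/C is given: 100% = DMSO vehicle control viability in luminescence.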
smiles,measurement,setting,value
CNCc1ccc(-c2[nH]c3cc(F)cc4c3c2CCNC4=O)cc1 + COC1C(OC(N)=O)C(O)C(Oc2ccc3c(O)c(NC(=O)c4ccc(O)c(CC=C(C)C)c4)c(=O)oc3c2C)OC1(C)C,IC50,second compound 0.0316 µM,> 10000 nM
same,IC50,second compound 0.1 µM,> 10000 nM
same,IC50,second compound 0.316 µM,> 10000 nM
same,IC50,second compound 1 µM,> 10000 nM
same,IC50,second compound 3.16 µM,> 10000 nM
same,IC50,second compound 10 µM,> 10000 nM
same,"viability, T/C",[1],94.4%
same,"viability, T/C",[2],90.5%
same,"viability, T/C",[3],96%
same,"viability, T/C",[4],99.2%
same,"viability, T/C",[5],102%
same,"viability, T/C",[6],99.3%
same,"viability, T/C",[7],110%
same,"viability, T/C",[8],96%
same,"viability, T/C",[9],96.4%
same,"viability, T/C",[10],103%
same,"viability, T/C",[11],114%
same,"viability, T/C",[12],96.4%
same,"viability, T/C",[13],107%
same,"viability, T/C",[14],102%
same,"viability, T/C",[15],102%
same,"viability, T/C",[16],107%
same,"viability, T/C",[17],99.5%
same,"viability, T/C",[18],101%
same,"viability, T/C",[19],99.7%
same,"viability, T/C",[20],96%
same,"viability, T/C",[21],98.5%
same,"viability, T/C",[22],104%
same,"viability, T/C",[23],102%
same,"viability, T/C",[24],97.5%
same,"viability, T/C",[25],110%
same,"viability, T/C",[26],98.7%
same,"viability, T/C",[27],102%
same,"viability, T/C",[28],101%
same,"viability, T/C",[29],99.9%
same,"viability, T/C",[30],95.7%
same,"viability, T/C",[31],102%
same,"viability, T/C",[32],95%
same,"viability, T/C",[33],106%
same,"viability, T/C",[34],96.9%
same,"viability, T/C",[35],98.6%
same,"viability, T/C",[36],102%
CC1COCCN1c1cc(-c2ccnn2C)c2ccnc(-c3ccn[nH]3)c2n1 (stereo not given) + Cc1cccc(N(C)C(=O)C2C(O)CCN2c2nc(C)cc(C(F)(F)F)c2C#N)c1,IC50,second compound 0.0316 µM,359 nM
same,IC50,second compound 0.1 µM,287 nM
same,IC50,second compound 0.316 µM,397 nM
same,IC50,second compound 1 µM,428 nM
same,IC50,second compound 3.16 µM,402 nM
same,IC50,second compound 10 µM,373 nM
same,"viability, T/C",[1],101%
same,"viability, T/C",[2],73%
same,"viability, T/C",[3],55.6%
same,"viability, T/C",[4],32.6%
same,"viability, T/C",[5],43.4%
same,"viability, T/C",[6],47.4%
same,"viability, T/C",[7],108%
same,"viability, T/C",[8],76.8%
same,"viability, T/C",[9],49.4%
same,"viability, T/C",[10],32.8%
same,"viability, T/C",[11],42.1%
same,"viability, T/C",[12],52.4%
same,"viability, T/C",[13],100%
same,"viability, T/C",[14],77.2%
same,"viability, T/C",[15],56.5%
same,"viability, T/C",[16],32.5%
same,"viability, T/C",[17],37.9%
same,"viability, T/C",[18],48.8%
same,"viability, T/C",[19],91.4%
same,"viability, T/C",[20],89.2%
same,"viability, T/C",[21],53.1%
same,"viability, T/C",[22],33%
same,"viability, T/C",[23],37.7%
same,"viability, T/C",[24],54.1%
same,"viability, T/C",[25],95%
same,"viability, T/C",[26],84%
same,"viability, T/C",[27],51.7%
same,"viability, T/C",[28],36.3%
same,"viability, T/C",[29],44%
same,"viability, T/C",[30],57.9%
same,"viability, T/C",[31],94.9%
same,"viability, T/C",[32],83.1%
same,"viability, T/C",[33],51.9%
same,"viability, T/C",[34],33.8%
same,"viability, T/C",[35],44.2%
same,"viability, T/C",[36],56.8%
CCc1cc2c(N3CCc4c(cc(Cn5ccnc5)cc4-c4cn(C)nc4C(F)(F)F)C3=O)ccnc2c(OC)n1 + COC1C(OC(N)=O)C(O)C(Oc2ccc3c(O)c(NC(=O)c4ccc(O)c(CC=C(C)C)c4)c(=O)oc3c2C)OC1(C)C,IC50,second compound 0.0316 µM,> 10000 nM
same,IC50,second compound 0.1 µM,> 10000 nM
same,IC50,second compound 0.316 µM,> 10000 nM
same,IC50,second compound 1 µM,> 10000 nM
same,IC50,second compound 3.16 µM,> 10000 nM
same,IC50,second compound 10 µM,> 10000 nM
same,"viability, T/C",[1],98.8%
same,"viability, T/C",[2],89.9%
same,"viability, T/C",[3],86.5%
same,"viability, T/C",[4],89.3%
same,"viability, T/C",[5],88.8%
same,"viability, T/C",[6],63%
same,"viability, T/C",[7],101%
same,"viability, T/C",[8],88.9%
same,"viability, T/C",[9],93.7%
same,"viability, T/C",[10],84.7%
same,"viability, T/C",[11],78.5%
same,"viability, T/C",[12],67.7%
same,"viability, T/C",[13],101%
same,"viability, T/C",[14],93.7%
same,"viability, T/C",[15],89.9%
same,"viability, T/C",[16],90.9%
same,"viability, T/C",[17],68.3%
same,"viability, T/C",[18],71.2%
same,"viability, T/C",[19],101%
same,"viability, T/C",[20],94%
same,"viability, T/C",[21],85.4%
same,"viability, T/C",[22],96.6%
same,"viability, T/C",[23],76.7%
same,"viability, T/C",[24],67.8%
same,"viability, T/C",[25],106%
same,"viability, T/C",[26],102%
same,"viability, T/C",[27],92%
same,"viability, T/C",[28],91.9%
same,"viability, T/C",[29],90.5%
same,"viability, T/C",[30],68.3%
same,"viability, T/C",[31],97.5%
same,"viability, T/C",[32],88.7%
same,"viability, T/C",[33],95.6%
same,"viability, T/C",[34],92.1%
same,"viability, T/C",[35],87.3%
same,"viability, T/C",[36],74.7%
C=CC(=O)N1CCN(c2nc(=O)n(-c3c(C)ccnc3C(C)C)c3nc(-c4c(O)cccc4F)c(F)cc23)C(C)C1 (stereo not given) + Cc1cccc(N(C)C(=O)C2C(O)CCN2c2nc(C)cc(C(F)(F)F)c2C#N)c1,IC50,second compound 0.0316 µM,> 10000 nM
same,IC50,second compound 0.1 µM,> 10000 nM
same,IC50,second compound 0.316 µM,> 10000 nM
same,IC50,second compound 1 µM,> 10000 nM
same,IC50,second compound 3.16 µM,> 10000 nM
same,IC50,second compound 10 µM,> 10000 nM
same,"viability, T/C",[1],114%
same,"viability, T/C",[2],85%
same,"viability, T/C",[3],101%
same,"viability, T/C",[4],93.8%
same,"viability, T/C",[5],109%
same,"viability, T/C",[6],97.9%
same,"viability, T/C",[7],106%
same,"viability, T/C",[8],91.4%
same,"viability, T/C",[9],98.8%
same,"viability, T/C",[10],103%
same,"viability, T/C",[11],100%
same,"viability, T/C",[12],110%
same,"viability, T/C",[13],95.2%
same,"viability, T/C",[14],96.9%
same,"viability, T/C",[15],100%
same,"viability, T/C",[16],105%
same,"viability, T/C",[17],101%
same,"viability, T/C",[18],103%
same,"viability, T/C",[19],102%
same,"viability, T/C",[20],105%
same,"viability, T/C",[21],109%
same,"viability, T/C",[22],106%
same,"viability, T/C",[23],102%
same,"viability, T/C",[24],110%
same,"viability, T/C",[25],102%
same,"viability, T/C",[26],96.5%
same,"viability, T/C",[27],108%
same,"viability, T/C",[28],98%
same,"viability, T/C",[29],106%
same,"viability, T/C",[30],113%
same,"viability, T/C",[31],107%
same,"viability, T/C",[32],101%
same,"viability, T/C",[33],107%
same,"viability, T/C",[34],113%
same,"viability, T/C",[35],114%
same,"viability, T/C",[36],107%
CC1COCCN1c1cc(C2(O)CC3CCC(C2)O3)c2cnn(-c3ccn[nH]3)c2n1 (stereo not given) + Nc1ccc(C#CCN(C(=O)Cc2ncc(C(F)(F)F)cc2C(F)(F)F)c2ccc(F)cc2)nn1,IC50,second compound 0.0316 µM,259 nM
same,IC50,second compound 0.1 µM,265 nM
same,IC50,second compound 0.316 µM,263 nM
same,IC50,second compound 1 µM,276 nM
same,IC50,second compound 3.16 µM,331 nM
same,IC50,second compound 10 µM,284 nM
same,"viability, T/C",[1],95.5%
same,"viability, T/C",[2],76.8%
same,"viability, T/C",[3],44.7%
same,"viability, T/C",[4],34.4%
same,"viability, T/C",[5],44%
same,"viability, T/C",[6],50.1%
same,"viability, T/C",[7],99.2%
same,"viability, T/C",[8],85.3%
same,"viability, T/C",[9],42.2%
same,"viability, T/C",[10],37.6%
same,"viability, T/C",[11],41.3%
same,"viability, T/C",[12],53%
same,"viability, T/C",[13],97.2%
same,"viability, T/C",[14],80.5%
same,"viability, T/C",[15],44.3%
same,"viability, T/C",[16],35.8%
same,"viability, T/C",[17],44.7%
same,"viability, T/C",[18],48.6%
same,"viability, T/C",[19],97.1%
same,"viability, T/C",[20],81.8%
same,"viability, T/C",[21],45.9%
same,"viability, T/C",[22],36.9%
same,"viability, T/C",[23],45.1%
same,"viability, T/C",[24],51.8%
same,"viability, T/C",[25],97.6%
same,"viability, T/C",[26],82.3%
same,"viability, T/C",[27],51.2%
same,"viability, T/C",[28],36.6%
same,"viability, T/C",[29],46.6%
same,"viability, T/C",[30],49.6%
same,"viability, T/C",[31],92.4%
same,"viability, T/C",[32],74.8%
same,"viability, T/C",[33],47.8%
same,"viability, T/C",[34],36.4%
same,"viability, T/C",[35],51.9%
same,"viability, T/C",[36],50%

# — PubChem BioAssay AID1963850 (Molecular Pharmacology Branch, DTP, NCI, 2024)
